The values below are quoted from earlier work in patent publication US20060116369A1, “Certain compounds, compositions, and methods” (priority 2004, published 2006).

The test system of the data set is A549 cells. The settings on record: data provided by National Cancer Institute, Developmental Therapeutic Program.

Take `NC(=O)NO` [hydroxyurea]: the GI50 is 500000 nM. Regarding `CC(=O)O[C@H]1C(=O)[C@@]2(C)[C@H]([C@H](OC(=O)c3ccccc3)[C@]3(O)C[C@H](OC(=O)[C@H](O)[C@@H](NC(=O)c4ccccc4)c4ccccc4)C(C)=C1C3(C)C)[C@]1(OC(C)=O)CO[C@@H]1C[C@@H]2O` [paclitaxel], the GI50 is 4 nM. In the case of `O=c1[nH]cc(F)c(=O)[nH]1` [5-fluorouracil], the GI50 is 1000 nM. For the compound `COc1cccc2c1C(=O)c1c(O)c3c(c(O)c1C2=O)C[C@@](O)(C(=O)CO)C[C@@H]3O[C@H]1C[C@H](N)[C@H](O)[C@H](C)O1` [doxorubicin], the GI50 is 63 nM.

As a reminder, the GI50 is the concentration at which growth is held to half of that of the control.
